In PMC6449294, “SNAPshots of the MCHR1: a Comparison Between the PET-Tracers [^18F]FE@SNAP and [^11C]SNAP-7941” (Molecular Imaging and Biology, 2018):
Entries after “also recorded” stand apart in the source; their conditions may differ.

Experiments:
human MCHR1 = molecular target: T1, human MCHR1 (Homo sapiens, UniProt Q99705); experiment: Kinetic real-time cell-binding study (LigandTracer) on CHO-K1-hMCHR1 cells; type: cell-based; conditions: for observed association rate constant (kobs): CHO-K1-hMCHR1 cells, ambient temperature, radiotracer 0.05–1000 nM, mean ± SEM; for accumulation on CHO-K1-hMCHR1 cells: real-time cell binding, result in words
T1 construct: host or cells: CHO-K1
Description: (§1) Kinetic real-time cell-binding studies were performed on adherent Chinese hamster ovary (CHO-K1) cells (negative control) and CHO-K1 cells stably expressing the human MCHR1 or MCHR2 (PerkinElmer®; Waltham, MA, USA) with [^11C]SNAP-7941 and [^18F]FE@SNAP as previously reported. The cells were cultured in Ham’s F-12 medium (Gibco®, Life Technologies) with additives (1 % penicillin-streptomycin-glutamine (PSG), 10 % fetal bovine serum (FBS), and 300-μg/m Geneticin (G-418)) and incubated in a humidified 5 % CO2 atmosphere at 37 °C. For the preparation of the binding experiment, approximately 10^6 cells were seeded as a monolayer on the bottom of a tilted cell culture dish (100 mm × 20 mm, CELLSTAR®, Greiner Bio-One) and incubated with 2-ml medium for 24 h to avoid a spreading of the cells over the whole Petri dish. In the next step, the medium was discarded and the Petri dish was placed in a horizontal position with 10-ml medium for additional 24 h. Afterwards, the binding experiment was performed at ambient temperature with LigandTracer® Yellow (Ridgeview Instruments AB, Uppsala, Sweden) using 3-ml fresh medium (Ham’s F-12, serum-free). Unspecific radiotracer uptake was determined with native CHO-K1 cells. The experiments were initiated with baseline measurements for 10–15 min followed by radioligand incubation of [^11C]SNAP-7941 and [^18F]FE@SNAP. Binding to the seeded cells was ensured by adding different concentrations of the radiotracer (0.05–1000 nM). Association-time curves were monitored in real-time until the binding equilibrium was achieved. The observed rate constant of the association reaction (kobs) was determined using non-linear regression curve fitting algorithms implemented in GraphPad Prism 6.0 (GraphPad Software, Inc., San Diego, CA, USA), as previously reported. Cell survival was continuously examined using the perimeter trace (signal vs. dish position) of the LigandTracer® 1.0.1 software (Ridgeview Instruments AB, Uppsala, Sweden).

human MCHR2 = molecular target: T2, human MCHR2 (Homo sapiens, UniProt Q969V1); experiment: Kinetic real-time cell-binding study (LigandTracer) on CHO-K1-hMCHR2 cells; type: cell-based; conditions: for Selectivity over MCHR2: CHO-K1-hMCHR1 vs CHO-K1-hMCHR2 living cells, Yes/No; for accumulation on CHO-K1-hMCHR2 cells: real-time cell binding, result in words
T2 construct: host or cells: CHO-K1
Description: as §1

native CHO-K1 cells = experiment: Kinetic real-time cell-binding study on native CHO-K1 cells (negative control, unspecific uptake); type: cell-based, Chinese hamster; conditions: result in words
Description: as §1, with “Afterwards, the binding experiment was performed at ambient temperature with LigandTracer® Yellow (Ridgeview Instruments AB, Uppsala, Sweden) using 3-ml fresh medium (Ham’s F-12, serum-free).” left out, “The experiments were initiated with baseline measurements for 10–15 min followed by radioligand incubation of [^11C]SNAP-7941 and [^18F]FE@SNAP. Binding to the seeded cells was ensured by adding different concentrations of the radiotracer (0.05–1000 nM).” left out, “Cell survival was continuously examined using the perimeter trace (signal vs. dish position) of the LigandTracer® 1.0.1 software (Ridgeview Instruments AB, Uppsala, Sweden).” left out

[1] = molecular target: T3, human serum albumin (HSA) (Homo sapiens, UniProt P02768); experiment: Plasma protein binding using bioaffinity chromatography (CHIRALPAK HSA); type: in vitro ADME; conditions: human; bioaffinity chromatography on HSA stationary phase; read-out: Plasma protein binding (%PPB) / Binding to human serum albumin (converted)
T3 construct: purchased Daicel Chemical Industries CHIRALPAK HSA, column-batch H13L-2405
Description: The binding of (±)-SNAP-7941 and FE@SNAP to human serum albumin (HSA) was examined by bioaffinity chromatography according to a previously published manuscript. In short, the analytes were diluted in 2-propanol and ammonium acetate buffer (0.5 mg/ml) and injected on the CHIRALPAK®HSA stationary phase (50 × 3 mm, 5 μm pore size, column-batch: H13L-2405, Daicel Chemical Industries, West Chester, PA, USA). Prior the experiments, the column was calibrated with reference standards, and the resulting regression equation was used to convert the logarithmic capacity factors (log(k′)) to the percent of plasma protein binding (%PPB). The calibration curves, as well as the experiments, were performed by triplicate injections and at least three times.

[2] = Ex vivo metabolites in rat whole blood (radio-HPLC); conditions: for Metabolism in rat blood: ex vivo, result in words
Description: For the analysis of potential radiometabolites, blood samples (50–80 μl) from rats were withdrawn at 10 and 45 min for [^11C]SNAP-7941 and at 10, 30, and 60 min for [^18F]FE@SNAP and immediately subjected to the equivalent amount of acetonitrile, homogenized, and stored on ice before processing. Additionally, [^18F]FE@SNAP was administered to three rats, which were sacrificed after 45 min. Whole brains were harvested and homogenized with equivalent amounts (500–800 μl) of acetonitrile and 0.9 % saline solution using an ULTRA-TURRAX® (T25 basic, IKA Laboratory Equipment, Staufen, Germany). Subsequently, blood and brain were centrifuged (23,000 ×g, 4 min, 4 °C; Hettich Universal 30RF, Tuttlingen, Germany), and the obtained supernatant was analyzed by an analytical HPLC equipped with a radioactivity detector (radio-HPLC) (stationary phase: Chromolith® Performance RP-18e, 100–4.6 mm; precolumn: Chromolith® Guard Cartridge RP-18e, 5–4.6 mm; Merck, Darmstadt, Germany), mobile phase: (water/acetic acid 97.5/2.5 v/v; 2.5 g/l ammonium acetate; pH 3.5)/acetonitrile 70/30 v/v; flow: 1 ml/min, λ = 254 nm). The ratio between metabolite and intact radiotracer was calculated using quantitative HPLC analysis.

MCHR1 = molecular target: MCHR1; parameters: method as in PMID 28808288; conditions: previous experiments; read-out: Affinity to MCHR1 (Ki); cited from earlier work
[3] = 10 min after radiotracer application

T2 sequence (Q969V1 whole entry): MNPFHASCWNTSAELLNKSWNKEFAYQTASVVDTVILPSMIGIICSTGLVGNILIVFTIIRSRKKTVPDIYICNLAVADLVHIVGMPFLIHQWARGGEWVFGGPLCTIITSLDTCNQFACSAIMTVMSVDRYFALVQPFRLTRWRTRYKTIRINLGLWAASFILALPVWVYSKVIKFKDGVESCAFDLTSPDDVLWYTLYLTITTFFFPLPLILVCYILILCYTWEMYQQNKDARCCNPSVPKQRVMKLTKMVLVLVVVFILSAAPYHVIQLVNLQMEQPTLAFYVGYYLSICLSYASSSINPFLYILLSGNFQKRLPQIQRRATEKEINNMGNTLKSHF
T1 sequence (Q99705 whole entry): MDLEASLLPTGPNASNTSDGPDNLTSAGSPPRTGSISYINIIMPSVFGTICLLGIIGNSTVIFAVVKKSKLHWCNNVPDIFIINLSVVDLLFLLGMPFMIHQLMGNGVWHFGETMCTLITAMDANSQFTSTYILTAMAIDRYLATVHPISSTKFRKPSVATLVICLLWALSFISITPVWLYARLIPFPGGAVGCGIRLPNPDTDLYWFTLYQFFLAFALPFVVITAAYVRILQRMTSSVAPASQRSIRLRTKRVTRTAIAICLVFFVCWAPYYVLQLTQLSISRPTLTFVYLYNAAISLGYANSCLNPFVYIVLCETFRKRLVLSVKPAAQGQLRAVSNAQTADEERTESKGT
T3 sequence (P02768 25-609): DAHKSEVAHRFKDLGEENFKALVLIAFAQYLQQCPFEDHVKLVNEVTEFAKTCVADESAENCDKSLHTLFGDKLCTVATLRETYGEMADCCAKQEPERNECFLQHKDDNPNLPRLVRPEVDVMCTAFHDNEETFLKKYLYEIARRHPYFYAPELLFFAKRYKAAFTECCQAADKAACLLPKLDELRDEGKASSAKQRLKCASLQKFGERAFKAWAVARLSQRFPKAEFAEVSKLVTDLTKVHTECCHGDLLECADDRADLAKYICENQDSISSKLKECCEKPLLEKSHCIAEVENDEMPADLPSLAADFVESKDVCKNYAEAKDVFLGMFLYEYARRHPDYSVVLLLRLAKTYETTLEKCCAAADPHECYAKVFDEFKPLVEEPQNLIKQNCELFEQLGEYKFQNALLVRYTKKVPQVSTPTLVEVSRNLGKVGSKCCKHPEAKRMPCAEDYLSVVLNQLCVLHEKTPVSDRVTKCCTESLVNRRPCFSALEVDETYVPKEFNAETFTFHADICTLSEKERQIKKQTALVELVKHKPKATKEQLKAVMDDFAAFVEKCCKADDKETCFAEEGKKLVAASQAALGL

Compound | observed association rate constant (kobs) (human MCHR1) [min⁻¹] | accumulation on CHO-K1-hMCHR1 cells (human MCHR1) | Selectivity over MCHR2 (human MCHR2) | accumulation on CHO-K1-hMCHR2 cells (human MCHR2) | accumulation on native CHO-K1 cells (native CHO-K1 cells) | fraction unbound at 0.5 mg/ml [1] | intact tracer in rat whole blood [2, 3] [%] | intact tracer in rat whole blood ([2]; 45 min) [%] | Metabolism in rat blood [2] | Ki (MCHR1) [nM] | observed association rate constant (kobs) (human MCHR2; CHO-K1-hMCHR2 cells, ambient temperature, radiotracer 0.05–1000 nM, mean ± SEM) [min⁻¹] | intact tracer in rat whole blood ([2]; 30 min after administration) [%] | intact tracer in rat whole blood ([2]; 60 min) [%]
COCC1=C(C(=O)O[11CH3])C(c2ccc(F)c(F)c2)N(C(=O)NCCCN2CCC(c3cccc(NC(C)=O)c3)CC2)C(=O)N1 (stereo not shown) [[^11C]SNAP-7941] | 0.0629 ± 0.0020 | high accumulation | Yes | negligible accumulation | negligible accumulation | 0.2 | 93.52 ± 0.1 | 93.74 ± 6.2 | high metabolic stability; also recorded: Stable | 3.91 ± 0.74 | – | – | –
COCC1=C(C(=O)OCC[18F])C(c2ccc(F)c(F)c2)N(C(=O)NCCCN2CCC(c3cccc(NC(C)=O)c3)CC2)C(=O)N1 (stereo not shown) [[^18F]FE@SNAP] | 0.0859 ± 0.0028 | high accumulation | No | exhibited accumulation | negligible accumulation | 0.23 | 38.40 ± 2.3 | – | Rapidly metabolized | 9.98 ± 1.12 | 0.0918 ± 0.0031 | 31.59 ± 4.0 | 14.42 ± 3.3
